In paper PMC6274124, “Design, Synthesis and Biological Evaluation of Brain-Targeted Thiamine Disulfide Prodrugs of Ampakine Compound LCX001” (Molecules, 2016):

Columns and labels:
[1] = tested on: respiratory depression induced by pain relieving opiates; parameters: method as in PMID 19907420; conditions: single oral dose of 1500 mg, without affecting the pain relieving effects; cited from earlier work
[2] = Metabolic stability in mice plasma extract at 37 °C; assay type: in vitro ADME; conditions: for half-life at 1.67 µg/mL: mouse
Protocol: (§1) To determine the plasma stability and brain stability of these prodrugs, we assayed the pharmacokinetics of the prepared compounds 7a–7f in mice plasma extract and brain homogenate at 37 °C. The pseudo-first order rate constants of disappearance (Ke) of the prodrugs and their half lives (t1/2) which were calculated by linear regression of Ln of peak area against time in minutes are listed in Table 1.
(§2) Blood was drawn from mice though the orbital sinus and was collected in a heparinized tube paved with heparin sodium. Samples were centrifuged at 10,000 rpm for 16 min to separate plasma which was diluted with four volumes of water. The brain was removed and homogenized. Samples were then placed on ice and used immediately. Ten μL acetonitrile solution (10 μg/mL) of the compound was added to 50 μL of plasma or brain homogenate and gently vortexed. Samples were incubated at 37 °C and aliquots were removed after 0, 5, 15, 30, 60 and 90 min, respectively. One hundred μL acetonitrile was added to each and vortexed. Samples were centrifuged for 10 min to remove proteins and the supernatants were analyzed by LC-MS/MS method as described.

[3] = Metabolic stability in mice brain homogenate at 37 °C; assay type: in vitro ADME; conditions: for half-life at 1.67 µg/mL: mouse, mouse brain homogenate
Protocol: as §1, §2

[4] = Brain distribution of LCX001 after i.v. administration; assay type: in vivo, Kunming mice; conditions: mice; for AUC0-t: LCX001 in brain, single dose equivalent to 1 mg/kg LCX001, n = 3
Source text: To further evaluate the possibility of prodrug 7e being transported across the BBB, the brain distribution of prodrug 7e and LCX001 after injection were detected at fixed time intervals. […] The AUC0-t for prodrug 7e was enhanced to 2.23 times that of LCX001. The MRT0-t was increased to 3.29 times that of LCX001. […] This agreed well with the fact that the “lock-in” effect and sustained release effect of the prodrug 7e could effectively delay the clearance of LCX001.
(§3) Mice were randomly divided into two groups, 27 in each group, for different sampling times and housed in one cage. Each animal was injected with 7e or LCX001 in 20% w/v hydroxypropyl-β-cyclodextrin and saline (0.45%) solution through the tail vein at a single dose equivalent to 1 mg/kg body weight of LCX001. At appropriate time intervals (5, 10, 30, 45, 60, 90, 120, 240 and 480 min), the animals were sacrificed and 1 mL blood samples withdrawn from the orbital sinus were collected in heparinized tubes. Fifty μL plasma was immediately separated by centrifugation, diluted with 200 μL methanol and stored at −20 °C until assay. Meanwhile, the brain was removed, weighed, homogenized and diluted with methanol to 1:5 (g/mL). The homogenates were also stored at −20 °C until assay. Internal standard (200 ng/mL) was added to the samples. The samples were vortexed for 3 min and then centrifuged at 9500 rpm for 15 min. Fifty μL supernatants were withdrawn, then 50 μL of water was added to each aliquot and vortexed. Ten μL samples were analyzed by LC-MS/MS method as described.
The Cmax, AUC0-t, Tmax, MRT0-t and t1/2 were calculated by WinNonlin software (version 5.2.1, Pharsight, Mountain View, CA, USA). Statistical evaluation was performed using analysis of variance followed by t-test. A value of p < 0.05 was considered significant.

[5] = Pharmacokinetics of LCX001 in plasma after i.v. administration; assay type: in vivo, Kunming mice; conditions: mice
Protocol: The compounds were injected through the caudal vein of the mice with a single dose equivalent to 1 mg/kg body weight of LCX001, and then blood was collected to analyze the concentration of LCX001 at different intervals by an LC-MS/MS method.
as §3, with “Fifty μL supernatants were withdrawn, then 50 μL of water was added to each aliquot and vortexed.” left out
The Cmax, AUC0-t, Tmax, MRT0-t and t1/2 were calculated by WinNonlin software (version 5.2.1, Pharsight, Mountain View, CA, USA). […]

opiate poisoned mice = test: Model of opiate-induced respiratory depression (030418-induced), mortality of mice; assay type: in vivo, Kunming mice; conditions: for Death Rate: 10 min before 030418 15 mg/kg sc
Protocol: To investigate the effect of 7e on opiate-induced respiratory depression, we proceeded with a preliminary pharmacodynamic study in mice. […] Varying doses of prodrug 7e were administered 10 min before 030418 administration. The effect of prodrug 7e and LCX001 on opiate-induced respiratory depression was evaluted by the mortality of mice. […] Further pharmacodynamic studies are currently underway.
A total of 80 male Kunming mice weighing 20–22 g were used in this study. Animals were fed ad libitum with a commercial rodent feed and had free access to drinking water. All animals received human care, and the study protocols complied with the guidelines of the animal center of academy of military medical sciences. Throughout the experiments, the animals were handled according to the international ethical guidelines for the care of laboratory animals.
Respiratory depression in conscious mice was induced by hypodermic (15 mg/kg) administration of 030418. Ten min prior to 030418 administration, animals were randomly assigned to the experimental groups and received an intravenous injection of either saline solution (control), LCX001 (10 mg/kg), prodrug 7e (30 mg/kg, 10 mg/kg, 3 mg/kg, 1 mg/kg or 0.5 mg/kg) (Table 4).
During the experiment, the poisoning time, poisoning symptoms and death time were recorded. The death rate (death number/sample number) was used to evaluate the effect of 7e on opiate-induced respiratory depression.

[6] = tested on: damphetamine- stimulated locomotion; parameters: method as in earlier work; conditions: behavioral testing; cited from earlier work
[7] = tested on: field excitatory postsynaptic potential (EPSP) in the rat dentate gyrus; parameters: method as in earlier work; conditions: cited from earlier work

Row | half-life at 1.67 µg/mL [2] [min] | melting point [°C] | half-life at 1.67 µg/mL [3] [min] | Compound | Ke, pseudo-first order rate constant of disappearance [2] | Ke, pseudo-first order rate constant of disappearance [3] | other results
1 | – | – | – | O=C(c1ccc2nonc2c1)N1CCOCC1 [CX717] | – | – | Effect on opiate-induced respiratory depression [1]: positive effects
2 | 2.23 | 78.8 to 79.5 | 3.48 | CCSS/C(CCOC(=O)CCCC(=O)O[C@H]1CC[C@H](N(C)C(=O)c2ccc3nonc3c2)CC1)=C(/C)N(C)C=O [Compound 7a, S-3-(Ethyldisulfanyl)-4-(N-methylformamido)pent-3-en-1-yl((1R,4R)-4-(N-methylbenzo[c][1,2,5]oxadiazole-5-carboxamido)cyclohexyl) glutarate] | 31.1 min^−1 (×10^−2) | 19.9 min^−1 (×10^−2) | –
3 | 9.82 | 78 to 79.3 | 10.2 | CCCSS/C(CCOC(=O)CCCC(=O)O[C@H]1CC[C@H](N(C)C(=O)c2ccc3nonc3c2)CC1)=C(/C)N(C)C=O [Compound 7b, S-3-(Propyldisulfanyl)-4-(N-methylformamido)pent-3-en-1-yl((1R,4R)-4-(N-methylbenzo[c][1,2,5]oxadiazole-5-carboxamido)cyclohexyl) glutarate] | 7.06 min^−1 (×10^−2) | 6.82 min^−1 (×10^−2) | –
4 | 10.2 | 67.6 to 68.4 | 17.1 | CCCCSS/C(CCOC(=O)CCCC(=O)O[C@H]1CC[C@H](N(C)C(=O)c2ccc3nonc3c2)CC1)=C(/C)N(C)C=O [Compound 7c, S-3-(Butyldisulfanyl)-4-(N-methylformamido)pent-3-en-1-yl((1R,4R)-4-(N-methylbenzo[c][1,2,5]oxadiazole-5-carboxamido)cyclohexyl) glutarate] | 6.77 min^−1 (×10^−2) | 4.05 min^−1 (×10^−2) | –
5 | 15.4 | 69.3 to 70.3 | 10.9 | CCCCCSS/C(CCOC(=O)CCCC(=O)O[C@H]1CC[C@H](N(C)C(=O)c2ccc3nonc3c2)CC1)=C(/C)N(C)C=O [Compound 7d, S-3-(Amyldisulfanyl)-4-(N-methylformamido)pent-3-en-1-yl((1R,4R)-4-(N-methylbenzo[c][1,2,5]oxadiazole-5-carboxamido)cyclohexyl) glutarate] | 4.50 min^−1 (×10^−2) | 6.34 min^−1 (×10^−2) | –
6 | 15.5 | 72.9 to 73.8 | 12 | C/C(=C(\CCOC(=O)CCCC(=O)O[C@H]1CC[C@H](N(C)C(=O)c2ccc3nonc3c2)CC1)SSCc1ccccc1)N(C)C=O [Compound 7f, S-3-(Benzyldisulfanyl)-4-(N-methylformamido)pent-3-en-1-yl((1R,4R)-4-(N-methylbenzo[c][1,2,5]oxadiazole-5-carboxamido)cyclohexyl) glutarate] | 4.48 min^−1 (×10^−2) | 5.78 min^−1 (×10^−2) | –
7 | – | – | – | CN(C(=O)c1ccc2nonc2c1)[C@H]1CC[C@H](O)CC1 [LCX001] | – | – | Inhibition of d-amphetamine-stimulated locomotion [6]: 100%; AUC0-t [4]: 504.32 ± 204.71 ng·h/g; Increase in amplitude of the field EPSP [7]: 21%; Death Rate (opiate poisoned mice; iv 10 mg/kg): 20%

Row | Compound | half-life at 1.67 µg/mL [2] [min] | melting point [°C] | half-life at 1.67 µg/mL [3] [min] | Ke, pseudo-first order rate constant of disappearance [2] | Ke, pseudo-first order rate constant of disappearance [3] | other results
8 | C/C(=C(\CCOC(=O)CCCC(=O)O[C@H]1CC[C@H](N(C)C(=O)c2ccc3nonc3c2)CC1)SSCCC(C)C)N(C)C=O [Compound 7e, S-3-(Isoamyldisulfanyl)-4-(N-methylformamido)pent-3-en-1-yl((1R,4R)-4-(N-methylbenzo[c][1,2,5]oxadiazole-5-carboxamido)cyclohexyl) glutarate] | 16 | – | 18.8 | 4.34 min^−1 (×10^−2) | 3.69 min^−1 (×10^−2) | AUC0-t [4]: 1125.49 ± 336.57 * h·ng/g; AUC0-t of LCX001 in brain, times that of LCX001 ([4]; brain): 2.23 times; MRT0-t of LCX001 in brain, times that of LCX001 ([4]; brain): 3.29 times; MRT of LCX001 in plasma, times that of LCX001 [5]: 0.77 times; Required molar dose relative to LCX001 to achieve the same effect (opiate poisoned mice; 3 mg/kg 7e gave the same effect as 10 mg/kg LCX001 on reducing mortality): one eighth; Death Rate (opiate poisoned mice; iv 0.5 mg/kg): 50%; Death Rate (opiate poisoned mice; iv 1 mg/kg): 30%; Death Rate (opiate poisoned mice; iv 3 mg/kg): 20%; Death Rate (opiate poisoned mice; iv 10 mg/kg): 0%; Death Rate (opiate poisoned mice; iv 30 mg/kg): 0%
